ChEMBL document CHEMBL1149426 (Bioorg Med Chem Lett, 2006)
pIC50, pKi: −log10 of the molar value.

Assays:
[1] = target: GABA-A receptor; anion channel; assay: Inhibitory activity against central benzodiazepine receptor; format: protein-complex assay
Liver microsomes [2] = assay: Metabolic stability in rat liver microsomes; format: ADME, Microsome
Rattus norvegicus = assay: Ability to restitute huddling in rat at 2.15 mg/kg, po; format: functional
[3] = Inhibitory activity against GABA receptor
Canis familiaris = species: Canis familiaris; assay: Metabolic stability in dog liver microsomes; format: ADME, Canis lupus familiaris
[4] = Inhibitory activity against adrenergic receptor
Liver microsomes [5] = assay: Metabolic stability in human liver microsomes; format: ADME, Microsome
[6] = Inhibitory activity against 5HT receptor
Adenosine receptor = Adenosine receptor (Homo sapiens, UniProt P30542+P29275+P0DMS8+P29274); assay: Inhibitory activity against adenosine receptor; format: protein assay
[7] = Inhibitory activity against neurotransmitter transporter
D(2) dopamine receptor = D(2) dopamine receptor (Homo sapiens, UniProt P14416); assay: Binding affinity to human cloned dopamine D2 receptor
Sequence of D(2) dopamine receptor (P14416 whole entry): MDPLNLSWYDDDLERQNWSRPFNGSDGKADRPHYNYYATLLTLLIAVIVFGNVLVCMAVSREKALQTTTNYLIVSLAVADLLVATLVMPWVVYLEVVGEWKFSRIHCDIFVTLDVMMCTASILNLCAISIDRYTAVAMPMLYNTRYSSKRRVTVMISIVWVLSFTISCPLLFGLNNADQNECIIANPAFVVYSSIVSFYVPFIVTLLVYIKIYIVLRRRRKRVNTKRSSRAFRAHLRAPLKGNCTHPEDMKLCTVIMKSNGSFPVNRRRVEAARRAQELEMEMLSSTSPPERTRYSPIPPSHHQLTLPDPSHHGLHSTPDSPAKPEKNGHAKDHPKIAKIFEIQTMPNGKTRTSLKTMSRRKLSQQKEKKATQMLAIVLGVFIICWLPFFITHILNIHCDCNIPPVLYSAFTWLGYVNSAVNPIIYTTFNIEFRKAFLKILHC

[8] = target: Muscarinic acetylcholine receptor; assay: Inhibitory activity against muscarinic receptor; format: protein assay
D(1B) dopamine receptor = D(1B) dopamine receptor (Homo sapiens, UniProt P21918); assay: Inhibitory activity against dopamine D5 receptor
Sequence of D(1B) dopamine receptor (P21918 whole entry): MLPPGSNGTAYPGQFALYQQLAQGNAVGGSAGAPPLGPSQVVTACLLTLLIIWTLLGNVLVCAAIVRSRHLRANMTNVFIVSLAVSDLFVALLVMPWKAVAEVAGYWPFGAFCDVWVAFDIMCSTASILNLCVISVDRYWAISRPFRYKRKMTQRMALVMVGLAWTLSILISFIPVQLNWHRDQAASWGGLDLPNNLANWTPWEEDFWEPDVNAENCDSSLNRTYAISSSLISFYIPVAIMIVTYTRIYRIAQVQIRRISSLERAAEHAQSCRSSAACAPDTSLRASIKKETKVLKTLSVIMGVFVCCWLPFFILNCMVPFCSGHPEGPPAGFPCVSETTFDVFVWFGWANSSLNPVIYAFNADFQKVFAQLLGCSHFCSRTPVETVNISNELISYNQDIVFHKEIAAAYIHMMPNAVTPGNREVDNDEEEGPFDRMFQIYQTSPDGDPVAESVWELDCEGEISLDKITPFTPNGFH

Cholecystokinin receptor = target: T1, Cholecystokinin receptor (Homo sapiens, UniProt P32239+P32238); assay: Inhibitory activity against cholecystokinin receptor; format: protein assay
T1 sequence (P32239 whole entry): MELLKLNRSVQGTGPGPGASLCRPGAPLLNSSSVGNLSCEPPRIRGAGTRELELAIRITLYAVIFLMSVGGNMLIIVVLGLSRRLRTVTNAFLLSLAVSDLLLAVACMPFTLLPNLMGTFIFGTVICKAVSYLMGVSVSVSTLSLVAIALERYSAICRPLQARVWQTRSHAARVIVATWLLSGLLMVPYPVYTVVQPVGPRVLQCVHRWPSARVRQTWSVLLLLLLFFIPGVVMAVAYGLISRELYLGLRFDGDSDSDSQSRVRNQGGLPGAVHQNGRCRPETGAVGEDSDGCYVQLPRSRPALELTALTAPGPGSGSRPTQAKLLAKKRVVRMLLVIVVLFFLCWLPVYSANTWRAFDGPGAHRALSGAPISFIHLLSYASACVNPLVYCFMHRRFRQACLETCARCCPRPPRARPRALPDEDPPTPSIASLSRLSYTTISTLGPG
T1 sequence (P32238 whole entry): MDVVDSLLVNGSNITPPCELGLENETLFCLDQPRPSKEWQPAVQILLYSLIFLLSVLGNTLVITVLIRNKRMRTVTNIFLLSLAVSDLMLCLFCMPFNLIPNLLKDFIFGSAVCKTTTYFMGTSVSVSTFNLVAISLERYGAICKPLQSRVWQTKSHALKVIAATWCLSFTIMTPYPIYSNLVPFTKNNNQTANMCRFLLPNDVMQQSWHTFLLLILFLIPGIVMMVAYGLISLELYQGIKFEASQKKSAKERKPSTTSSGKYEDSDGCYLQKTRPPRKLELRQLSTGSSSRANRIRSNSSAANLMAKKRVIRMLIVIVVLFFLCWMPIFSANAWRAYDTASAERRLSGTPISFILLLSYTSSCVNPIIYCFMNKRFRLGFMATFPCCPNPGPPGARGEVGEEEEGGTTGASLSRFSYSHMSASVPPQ

[9] = Permeability across Caco-2 cell membrane; format: ADME, cell-based; settings: human
D(1A) dopamine receptor = D(1A) dopamine receptor (Homo sapiens, UniProt P21728); assay: Inhibitory activity against dopamine D1 receptor
Sequence of D(1A) dopamine receptor (P21728 whole entry): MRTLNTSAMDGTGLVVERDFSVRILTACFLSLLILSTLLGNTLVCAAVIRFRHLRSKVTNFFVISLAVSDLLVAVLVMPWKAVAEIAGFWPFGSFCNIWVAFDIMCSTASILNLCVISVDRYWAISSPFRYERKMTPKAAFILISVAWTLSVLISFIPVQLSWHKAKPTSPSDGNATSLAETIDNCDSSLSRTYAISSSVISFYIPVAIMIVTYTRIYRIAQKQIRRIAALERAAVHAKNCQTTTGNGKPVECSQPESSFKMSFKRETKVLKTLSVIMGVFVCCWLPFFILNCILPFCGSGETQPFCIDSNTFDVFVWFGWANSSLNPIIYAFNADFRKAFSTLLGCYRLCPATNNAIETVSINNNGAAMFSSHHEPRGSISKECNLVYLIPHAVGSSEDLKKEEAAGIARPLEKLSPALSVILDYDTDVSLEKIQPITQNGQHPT

[10] = target: Opioid receptors; mu/kappa/delta (Homo sapiens, UniProt P41145+P41143+P35372); assay: Inhibitory activity against opioid receptor; format: protein assay
D(3) dopamine receptor = D(3) dopamine receptor (Homo sapiens, UniProt P35462); assay: Binding affinity to human cloned dopamine D3 receptor
Sequence of D(3) dopamine receptor (P35462 whole entry): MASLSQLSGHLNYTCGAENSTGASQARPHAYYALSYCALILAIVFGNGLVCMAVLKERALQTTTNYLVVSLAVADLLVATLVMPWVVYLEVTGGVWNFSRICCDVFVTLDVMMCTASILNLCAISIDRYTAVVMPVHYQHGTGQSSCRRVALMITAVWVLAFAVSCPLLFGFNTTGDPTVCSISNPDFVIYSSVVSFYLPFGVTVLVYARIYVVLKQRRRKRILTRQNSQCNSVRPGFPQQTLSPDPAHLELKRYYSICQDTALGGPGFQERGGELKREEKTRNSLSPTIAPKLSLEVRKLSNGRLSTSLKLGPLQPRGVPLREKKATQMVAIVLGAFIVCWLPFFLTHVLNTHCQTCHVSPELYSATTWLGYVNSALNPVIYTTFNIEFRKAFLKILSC

SMILES | pKi (D(2) dopamine receptor) | pKi (D(3) dopamine receptor) | also measured
CC(C)(C)c1nc(N2CCN(C/C=C/CN3C(=O)CCc4ccccc43)CC2)cc(C(F)(F)F)n1 | 6.60 |  | 
CC(C)(C)c1nc(N2CCN(CCCCn3c(=O)ccc4ccccc43)CC2)cc(C(F)(F)F)n1 | 6.82 | 7.95 | 
CC(C)(C)c1nc(N2CCN(CCCCN3C(=O)CCc4ccccc43)CC2)cc(C(F)(F)F)n1 | 6.90 | 8.47 | 
CC(C)(C)c1nc(N2CCN(CCCCN3CCC(=O)CCC3=O)CC2)cc(C(F)(F)F)n1 | 7.19 | 8.41 | 
COc1cc2c(cc1OC)N(CCCCN1CCN(c3cc(C(F)(F)F)nc(C(C)(C)C)n3)CC1)C(=O)CCC2=O | 6.33 |  | 
C/C(=C\CN1CCN(c2cc(C(F)(F)F)nc(C(C)(C)C)n2)CC1)CN1C(=O)CCc2ccccc21 | 6.17 | 7.23 | 
C[C@@H](CCCN1C(=O)CCc2ccccc21)N1CCN(c2cc(C(F)(F)F)nc(C(C)(C)C)n2)CC1 | 6.54 | 7.65 | 

The next lines start with results.

pKi (D(2) dopamine receptor) | pKi (D(3) dopamine receptor) | SMILES | also measured
6.61 |  | CC(C)(C)c1nc(N2CCN(CCCCN3C(=O)CCC(=O)c4ccccc43)CC2)cc(C(F)(F)F)n1 | pIC50 [1]: < 5.00; Stability (Liver microsomes [2]): > 97%; Activity (Rattus norvegicus): 37%; pIC50 [3]: < 5.00; Stability (Canis familiaris): > 97%; pIC50 [4]: < 5.00; Stability (Liver microsomes [5]): > 97%; pIC50 [6]: < 5.00; IC50 (Adenosine receptor): > 10000 nM; pIC50 [7]: < 5.00; IC50 [8]: > 10000 nM; pIC50 (D(1B) dopamine receptor): < 5.00; IC50 (Cholecystokinin receptor): > 10000 nM; Papp [9]: 0.33 ×10⁻⁶ cm/s; pIC50 (D(1A) dopamine receptor): < 5.00; IC50 [10]: > 10000 nM
7.08 | 8.02 | CC(C)(C)c1nc(N2CCN(CCCCN3C(=O)CCSc4ccccc43)CC2)cc(C(F)(F)F)n1 | 
7.03 |  | CC(C)(C)c1nc(N2CCN(CCCCN3C(=O)CCCc4c(O)cccc43)CC2)cc(C(F)(F)F)n1 | 
6.45 | 7.92 | CC(C)(C)c1nc(N2CCN(CCCCN3C(=O)COc4ccccc43)CC2)cc(C(F)(F)F)n1 | 
6.85 | 7.40 | CC(C)(C)c1nc(N2CCN(CCCCN3C(=O)CC(=O)c4ccccc43)CC2)cc(C(F)(F)F)n1 | 
 | 6.53 | CC(C)(C)c1nc(N2CCN(CCCCN3Cc4ccccc4CC3=O)CC2)cc(C(F)(F)F)n1 | 
 | 5.39 | CC(C)(C)c1nc(N2CCN(CCCCCN3C(=O)CCc4ccccc43)CC2)cc(C(F)(F)F)n1 | 
6.61 | 8.00 | COc1cccc2c1CCCC(=O)N2CCCCN1CCN(c2cc(C(F)(F)F)nc(C(C)(C)C)n2)CC1 | 
6.58 | 7.19 | C[C@H](CCN1CCN(c2cc(C(F)(F)F)nc(C(C)(C)C)n2)CC1)CN1C(=O)CCc2ccccc21 | 
6.93 | 7.77 | CC(C)(C)c1nc(N2CCN(CCCCN3C(=O)CCCc4ccccc43)CC2)cc(C(F)(F)F)n1 | 
 | 7.03 | CC(C)(C)c1nc(N2CCN(CCCN3C(=O)CCc4ccccc43)CC2)cc(C(F)(F)F)n1 | 
